Reference: PMC9501633, “Synthesis, Characterisation and Mechanism of Action of Anticancer 3-Fluoroazetidin-2-ones” (Pharmaceuticals, 2022)

Legend:
KM12 = assay: NCI 60 cell line screen, Colon; format: cell-based, human; conditions: one dose 10 µM
HOP-62 = assay: NCI 60 cell line screen, NSCLung; format: cell-based, human; conditions: one dose 10 µM
HOP-92 = assay: NCI 60 cell line screen, NSCLung; format: cell-based, human; conditions: one dose 10 µM
COLO 205 = assay: NCI 60 cell line screen, Colon; format: cell-based, human; conditions: one dose 10 µM
HL-60(TB) = assay: NCI 60 cell line screen, Leukaemia; format: cell-based, human; conditions: one dose 10 µM
HT29 = assay: NCI 60 cell line screen, Colon; format: cell-based, human
SR = assay: NCI 60 cell line screen, Leukaemia; format: cell-based, human; conditions: one dose 10 µM
OVCAR-4 = assay: NCI 60 cell line screen, Ovarian; format: cell-based, human; conditions: one dose 10 µM
SK-MEL-5 = assay: NCI 60 cell line screen, Melanoma; format: cell-based, human; conditions: one dose 10 µM
HCT-15 = assay: NCI 60 cell line screen, Colon; format: cell-based, human; conditions: one dose 10 µM
NCI-H460 = assay: NCI 60 cell line screen, NSCLung; format: cell-based, human; conditions: one dose 10 µM
RXF 393 = assay: NCI 60 cell line screen, Renal; format: cell-based, human; conditions: one dose 10 µM
NCI/ADR-RES = assay: NCI 60 cell line screen, Ovarian; format: cell-based, human; conditions: one dose 10 µM
NCI 60 cell line panel = assay: NCI 60 cell line screen, whole panel; format: cell-based
Experimental: The antiproliferative effects of selected compounds 33, 37 and 43 were initially evaluated in the NCI 60 cell line screen at 10 μM concentration (see Supplementary Materials Table S3). […] . […] .
Compound 33 was next selected for evaluation in the NCI 60 cell line five-dose screen. The GI50 (50% growth inhibition), TGI (total growth inhibition) and LC50 (50% lethal concentration) were determined in the NCI panel of 60 cell lines, using the sulphorhodamine B (SRB) protein assay (Table 5). The GI50 value provides the growth inhibition of the selected compound, while the cytotoxic effect is evaluated in the LC50 value. […] . […] . Glioblastoma is an aggressive and fast-growing brain tumour with a median survival time of 9–16 months from diagnosis, and these tumours quickly evolve resistance to temozolomide chemotherapy, which is the only FDA-approved treatment. […] . Further mechanistic and cellular studies were carried out and are described below.
(§1) aData obtained from NCI in vitro human tumour cell screen 1 dose assay (10 µM). 33 (NCI

leukaemia panel = assay: NCI 60 cell line one-dose screen, panel mean; format: cell-based; conditions: Homo sapiens, one dose 10 μM, read-out: mean growth inhibition
Experimental: The antiproliferative effects of selected compounds 33, 37 and 43 were initially evaluated in the NCI 60 cell line screen at 10 μM concentration (see Supplementary Materials Table S3).
as §1

MALME-3M = assay: NCI 60 cell line screen, Melanoma; format: cell-based, human; conditions: one dose 10 µM
SK-MEL-28 = assay: NCI 60 cell line screen, Melanoma; format: cell-based, human; conditions: one dose 10 µM
K-562 = assay: NCI 60 cell line screen, Leukaemia; format: cell-based, human
SK-MEL-2 = assay: NCI 60 cell line screen, Melanoma; format: cell-based, human; conditions: one dose 10 µM
OVCAR-3 = assay: NCI 60 cell line screen, Ovarian; format: cell-based, human; conditions: one dose 10 µM
HCC-2998 = assay: NCI 60 cell line screen, Colon; format: cell-based, human; conditions: one dose 10 µM
T-47D = assay: NCI 60 cell line screen, Breast; format: cell-based, human; conditions: one dose 10 µM
BT-549 = assay: NCI 60 cell line screen, Breast; format: cell-based, human; conditions: one dose 10 µM
UACC-257 = assay: NCI 60 cell line screen, Melanoma; format: cell-based, human; conditions: one dose 10 µM
DU-145 = assay: NCI 60 cell line screen, Prostate; format: cell-based, human; conditions: one dose 10 µM
SN12C = assay: NCI 60 cell line screen, Renal; format: cell-based, human; conditions: one dose 10 µM
SK-OV-3 = assay: NCI 60 cell line screen, Ovarian; format: cell-based, human; conditions: one dose 10 µM
CCRF-CEM = assay: NCI 60 cell line screen, Leukaemia; format: cell-based, human; conditions: one dose 10 µM
SF-539 = assay: NCI 60 cell line screen, CNS; format: cell-based, human; conditions: one dose 10 µM
EKVX = assay: NCI 60 cell line screen, NSCLung; format: cell-based, human; conditions: one dose 10 µM
SF-268 = assay: NCI 60 cell line screen, CNS; format: cell-based, human; conditions: one dose 10 µM
M14 = assay: NCI 60 cell line screen, Melanoma; format: cell-based, human; conditions: one dose 10 µM

For `COc1ccc(C2N(c3cc(OC)c(OC)c(OC)c3)C(=O)C2(F)F)cc1F` (stereo not drawn) [Compound 43, 3,3-Difluoro-4-(3-fluoro-4-methoxyphenyl)-1-(3,4,5-trimethoxyphenyl)azetidin-2-one], the inhibition at 10 µM (KM12; Homo sapiens) was 77.1%, the Growth % (KM12) was 22.9% and the inhibition at 10 µM (HOP-62; Homo sapiens) was 61.6%. The Growth % (HOP-62) was 38.43%, the inhibition at 10 µM (HOP-92; Homo sapiens) was 39.2% and the Growth % (HOP-92) was 60.84%. For the same compound, the inhibition at 10 µM (COLO 205; Homo sapiens) was 83.7%, the Growth % (COLO 205) was 16.32% and the inhibition at 10 µM (HL-60(TB); Homo sapiens) was 99.1%. It also gave a Growth % (HL-60(TB)) of 0.94%, an inhibition at 10 µM (HT29; Homo sapiens, HT-29, one dose 10 µM) of 88.8% and a Growth % (HT29; one dose 10 µM) of 11.16%. It also gave an inhibition at 10 µM (SR; Homo sapiens) of 81.3%, a Growth % (SR) of 18.7% and an inhibition at 10 µM (OVCAR-4; Homo sapiens) of 41.7%. The Growth % (OVCAR-4) was 58.34%, the inhibition at 10 µM (SK-MEL-5; Homo sapiens) was 91.9% and the Growth % (SK-MEL-5) was 8.08%. It also gave an inhibition at 10 µM (HCT-15; Homo sapiens) of 80.6%, a Growth % (HCT-15) of 19.44% and an inhibition at 10 µM (NCI-H460; Homo sapiens) of 72.8%. It also gave a Growth % (NCI-H460) of 27.15%, an inhibition at 10 µM (RXF 393; Homo sapiens) of 50.6% and a Growth % (RXF 393) of 49.36%. The inhibition at 10 µM (NCI/ADR-RES; Homo sapiens) was 67.1%, the Growth % (NCI/ADR-RES) was 32.94% and the inhibition at 10 µM (NCI 60 cell line panel; Homo sapiens, 60 cell, one dose 10 μM, mean over the 60 cell lines, read-out: mean growth inhibition) was 56.4%. For the same compound, the “mean Growth %” value (NCI 60 cell line panel; one dose 10 µM, mean over the cell lines) was 43.57%, the inhibition at 10 µM (leukaemia panel) was 86.3% and the inhibition at 10 µM (MALME-3M; Homo sapiens) was 35.9%. The Growth % (MALME-3M) was 64.09%, the inhibition at 10 µM (SK-MEL-28; Homo sapiens) was 22.8% and the Growth % (SK-MEL-28) was 77.22%. It also gave an inhibition at 10 µM (K-562; Homo sapiens, K562, one dose 10 µM) of 89.5%, a Growth % (K-562; one dose 10 µM) of 10.5% and an inhibition at 10 µM (SK-MEL-2; Homo sapiens) of 15.4%. For the same compound, the Growth % (SK-MEL-2) was 84.61%, the inhibition at 10 µM (OVCAR-3; Homo sapiens) was 88.4% and the Growth % (OVCAR-3) was 11.64%. The inhibition at 10 µM (HCC-2998; Homo sapiens) was 15.8%, the Growth % (HCC-2998) was 84.2% and the inhibition at 10 µM (T-47D; Homo sapiens, T47D) was 34.3%. The Growth % (T-47D) was 65.69%, the inhibition at 10 µM (BT-549; Homo sapiens) was 65% and the Growth % (BT-549) was 34.99%. It also gave an inhibition at 10 µM (UACC-257; Homo sapiens) of 50%, a Growth % (UACC-257) of 50.01% and an inhibition at 10 µM (DU-145; Homo sapiens) of 74.8%. For the same compound, the Growth % (DU-145) was 25.22%, the inhibition at 10 µM (SN12C; Homo sapiens) was 45.1% and the Growth % (SN12C) was 54.92%. The inhibition at 10 µM (SK-OV-3; Homo sapiens) was 24.5%, the Growth % (SK-OV-3) was 75.49% and the inhibition at 10 µM (CCRF-CEM; Homo sapiens) was 87%. The Growth % (CCRF-CEM) was 12.96%, the inhibition at 10 µM (SF-539; Homo sapiens) was 78.3% and the Growth % (SF-539) was 21.65%. It also gave an inhibition at 10 µM (EKVX; Homo sapiens) of 22.3%, a Growth % (EKVX) of 77.7% and an inhibition at 10 µM (SF-268; Homo sapiens) of 47.1%. It also gave a Growth % (SF-268) of 52.94%, an inhibition at 10 µM (M14; Homo sapiens) of 75.8% and a Growth % (M14) of 24.24%.
